The structures appear in SMILES notation. Where a name gives a salt, the structure may show the parent alone.

As for `Cc1cc(-c2nc3cccnn3c2-c2ccnc(NC(=O)NCCCCO)c2)ccc1F.Cl`, the melting point is 188 to 189 °C. To `Cc1cc(-c2nc3cccnn3c2-c2ccnc(NC(=O)N3CCOCC3)c2)ccc1F.Cl` belongs 164 to 166 °C. To `Cc1cc(-c2nc3cccnn3c2-c2ccnc(NC(=O)N3CCC(O)CC3)c2)ccc1F.Cl` belongs 156 to 157 °C; to `Cc1cc(-c2nc3cccnn3c2-c2ccnc(NC(=O)c3ccc(Cl)cc3)c2)ccc1F.Cl`, 264 to 266 °C; to `COc1ccc(C(=O)Nc2cc(-c3c(-c4cccc(Cl)c4)nc4cccnn34)ccn2)cc1.Cl`, 236 to 238 °C.

Regarding `Cc1cc(-c2nc3cccnn3c2-c2ccnc(NC(=O)c3ccc(Cl)nc3)c2)ccc1F.Cl`, the melting point lay in the range of 250 to 251 °C. With `Cc1cc(-c2nc3cccnn3c2-c2ccnc(NC(=O)c3ccc(Cl)cc3)c2)ccc1F` (as salt: methanesulfonate) [Example 62, 4-Chloro-N-{4-[2-(4-fluoro-3-methylphenyl)imidazo[1,2-b]pyridazin-3-yl]pyridin-2-yl}benzamide methanesulfonate], the melting point fell in the range of 239 to 241 °C. To `COc1ccc2nc(-c3cccc(C)c3)c(-c3ccnc(NC4CCCCC4)c3)n2n1` [Example 9, N-Cyclohexyl-4-[6-methoxy-2-(3-methylphenyl)imidazo[1,2-b]pyridazin-3-yl]pyridin-2-amine] belongs 188 to 189 °C; to `CSc1ccc2nc(-c3cccc(C)c3)c(-c3ccnc(NC4CCCCC4)c3)n2n1` [Example 10, N-Cyclohexyl-4-[2-(3-methylphenyl)-6-(methylthio)imidazo[1,2-b]pyridazin-3-yl]pyridin-2-amine], 150 to 151 °C; to `Cc1cccc(-c2nc3ccc(S(C)(=O)=O)nn3c2-c2ccnc(NC3CCCCC3)c2)c1` [Example 11, N-Cyclohexyl-4-[2-(3-methylphenyl)-6-(methylsulfonyl)imidazo[1,2-b]pyridazin-3-yl]pyridin-2-amine], 196 to 197 °C. Then `Cc1cccc(-c2nc3ccc(Cl)nn3c2-c2ccnc(N)c2)c1` [Example 12, 4-[6-Chloro-2-(3-methylphenyl)imidazo[1,2-b]pyridazin-3-yl]pyridin-2-amine], with 247 to 248 °C; and `Cc1cccc(-c2nc3cccnn3c2-c2ccnc(N)c2)c1` [Example 14, 4-[2-(3-Methylphenyl)imidazo[1,2-b]pyridazin-3-yl]pyridin-2-amine], with 188 to 189 °C; and `COc1ccc(C(=O)Nc2cc(-c3c(-c4cccc(C)c4)nc4ccc(Cl)nn34)ccn2)cc1` [Example 18, N-{4-[6-Chloro-2-(3-methylphenyl)imidazo[1,2-b]pyridazin-3-yl]pyridin-2-yl}-4-methoxybenzamide], with 204 to 205 °C. For the molecule `CCC(=O)N(C(=O)CC)c1cc(-c2c(-c3cccc(C)c3)nc3cccnn23)ccn1` [Example 22, N-{4-[2-(3-Methylphenyl)imidazo[1,2-b]pyridazin-3-yl]pyridin-2-yl}-N-propionylpropanamide], the melting point was in the range of 210 to 211 °C. Then `Cc1cccc(-c2nc3cccnn3c2-c2ccnc(NC(=O)C(C)O)c2)c1` (stereo not shown) [Example 29, 2-Hydroxy-N-{4-[2-(3-methylphenyl)imidazo[1,2-b]pyridazin-3-yl]pyridin-2-yl}propanamide], with 223 to 224 °C; and `Cc1cccc(-c2nc3cccnn3c2-c2ccnc(NC(=O)N3CCCCC3)c2)c1` [Example 31, N-{4-[2-(3-Methylphenyl)imidazo[1,2-b]pyridazin-3-yl]pyridin-2-yl}piperidine-1-carboxamide], with 173 to 175 °C; and `Cc1cccc(-c2nc3ccc(Cl)nn3c2-c2ccnc(N)n2)c1` [Example 34, 4-[6-Chloro-2-(3-methylphenyl)imidazo[1,2-b]pyridazin-3-yl]-2-pyrimidinamine], with 237 to 238 °C. Then `Cc1cccc(-c2nc3cccnn3c2-c2ccnc(NCC3CCCCC3)c2)c1` [Example 38, N-(Cyclohexylmethyl)-4-[2-(3-methylphenyl)imidazo[1,2-b]pyridazin-3-yl]pyridin-2-amine], with 128 to 130 °C.

`O=C(Nc1cc(-c2c(-c3ccc(F)cc3)nc3cccnn23)ccn1)c1ccncc1` [Example 40-1, N-{4-[2-(4-fluorophenyl)imidazo[1,2-b]pyridazin-3-yl]pyridin-2-yl}isonicotinamide] registered a melting point of 226 to 227 °C.

In the case of `O=C(Nc1cc(-c2c(-c3ccc(F)cc3)nc3cccnn23)ccn1)c1ccc(Cl)nc1` [Example 40-2, 6-chloro-N-{4-[2-(4-fluorophenyl)imidazo[1,2-b]pyridazin-3-yl]pyridin-2-yl}nicotinamide], the melting point is 247 to 248 °C. Then `Cc1cc(-c2nc3c(C)cc(Cl)nn3c2-c2ccnc(NC(=O)c3ccc(F)cc3)c2)ccc1F` [Example 41-2, N-{4-[6-chloro-2-(4-fluoro-3-methylphenyl)-8-methylimidazo[1,2-b]pyridazin-3-yl]-2-pyridyl}-4-fluorobenzamide], with 235 to 236 °C; and `Cc1cc(-c2nc3cc(C(C)(C)C)c(Cl)nn3c2-c2ccnc(NC(=O)c3ccc(F)cc3)c2)ccc1F` [Example 41-3, N-{4-[7-tert-butyl-6-chloro-2-(4-fluoro-3-methylphenyl)imidazo[1,2-b]pyridazin-3-yl]-2-pyridyl}-4-fluorobenzamide], with 181 to 182 °C. To `Cc1cc(-c2nc3c(C)ccnn3c2-c2ccnc(NC(=O)c3ccc(F)cc3)c2)ccc1F` [Example 41-4, N-{4-[2-(4-fluoro-3-methylphenyl)-8-methylimidazo[1,2-b]pyridazin-3-yl]-2-pyridyl}-4-fluorobenzamide] belongs 243 to 244 °C. To `Cc1cc(-c2nc3cc(C(C)(C)C)cnn3c2-c2ccnc(NC(=O)c3ccc(F)cc3)c2)ccc1F` [Example 41-5, N-{4-[7-tert-butyl-2-(4-fluoro-3-methylphenyl)imidazo[1,2-b]pyridazin-3-yl]-2-pyridyl}-4-fluorobenzamide] belongs 201 to 202 °C.

As for `Cc1cc(-c2nc3cccnn3c2-c2ccnc(NC(=O)CC(F)(F)F)c2)ccc1F` [Example 42-1, 3,3,3-trifluoro-N-{4-[2-(4-fluoro-3-methylphenyl)imidazo[1,2-b]pyridazin-3-yl]pyridin-2-yl}propanamide], the melting point lay in the range of 220 to 221 °C. Then `Cc1cc(-c2nc3cccnn3c2-c2ccnc(NC(=O)C(C)C)c2)ccc1F` [Example 42-2, N-{4-[2-(4-fluoro-3-methylphenyl)imidazo[1,2-b]pyridazin-3-yl]pyridin-2-yl}-2-methylpropanamide], with 214 to 215 °C; and `CCCC(=O)Nc1cc(-c2c(-c3ccc(F)c(C)c3)nc3cccnn23)ccn1` [Example 42-4, N-{4-[2-(4-fluoro-3-methylphenyl)imidazo[1,2-b]pyridazin-3-yl]pyridin-2-yl}butanamide], with 181 to 183 °C; and `CSCCC(=O)Nc1cc(-c2c(-c3ccc(F)c(C)c3)nc3cccnn23)ccn1` [Example 42-5, N-{4-[2-(4-fluoro-3-methylphenyl)imidazo[1,2-b]pyridazin-3-yl]pyridin-2-yl}-3-(methylthio)propanamide], with 158 to 159 °C. Then `Cc1cc(-c2nc3cccnn3c2-c2ccnc(NC(=O)c3ccc(Cl)cc3)c2)ccc1F` [Example 42-7, 4-chloro-N-{4-[2-(4-fluoro-3-methylphenyl)imidazo[1,2-b]pyridazin-3-yl]pyridin-2-yl}benzamide], with 208 to 209 °C. Consider `COc1cc(F)ccc1C(=O)Nc1cc(-c2c(-c3ccc(F)c(C)c3)nc3cccnn23)ccn1` [Example 42-8, 4-fluoro-N-{4-[2-(4-fluoro-3-methylphenyl)imidazo[1,2-b]pyridazin-3-yl]pyridin-2-yl}-2-methoxybenzamide], for which the melting point was 251 to 252 °C. The molecule `CSc1ccc(C(=O)Nc2cc(-c3c(-c4ccc(F)c(C)c4)nc4cccnn34)ccn2)cc1` [Example 42-9, N-{4-[2-(4-fluoro-3-methylphenyl)imidazo[1,2-b]pyridazin-3-yl]pyridin-2-yl}-4-(methylthio)benzamide] showed a melting point of 191 to 192 °C.

For the molecule `Cc1cc(-c2nc3cccnn3c2-c2ccnc(NC(=O)c3ccc(N(C)C)cc3)c2)ccc1F` [Example 42-10, 4-(dimethylamino)-N-{4-[2-(4-fluoro-3-methylphenyl)imidazo[1,2-b]pyridazin-3-yl]pyridin-2-yl}benzamide], the melting point lay within 245 to 246 °C.

Take `COc1cc(C(=O)Nc2cc(-c3c(-c4ccc(F)c(C)c4)nc4cccnn34)ccn2)ccc1F` [Example 42-11, 4-fluoro-N-{4-[2-(4-fluoro-3-methylphenyl)imidazo[1,2-b]pyridazin-3-yl]pyridin-2-yl}-3-methoxybenzamide]: the melting point lay in the range of 217 to 218 °C.

`COc1ccc(C(=O)Nc2cc(-c3c(-c4ccc(F)c(C)c4)nc4cccnn34)ccn2)cc1F` [Example 42-12, 3-fluoro-N-{4-[2-(4-fluoro-3-methylphenyl)imidazo[1,2-b]pyridazin-3-yl]pyridin-2-yl}-4-methoxybenzamide] gave a melting point of 202 to 203 °C. Then `Cc1cc(-c2nc3cccnn3c2-c2ccnc(NC(=O)c3ccc(C(F)(F)F)cc3)c2)ccc1F` [Example 42-13, N-{4-[2-(4-fluoro-3-methylphenyl)imidazo[1,2-b]pyridazin-3-yl]pyridin-2-yl}-4-(trifluoromethyl)benzamide], with 224 to 225 °C; and `Cc1cc(-c2nc3cccnn3c2-c2ccnc(NC(=O)c3ccc(OC(F)(F)F)cc3)c2)ccc1F` [Example 42-14, N-{4-[2-(4-fluoro-3-methylphenyl)imidazo[1,2-b]pyridazin-3-yl]pyridin-2-yl}-4-(trifluoromethoxy)benzamide], with 225 to 226 °C; and `Cc1cc(-c2nc3cccnn3c2-c2ccnc(NC(=O)c3ccc(Cl)cc3C)c2)ccc1F` [Example 42-15, 4-chloro-N-{4-[2-(4-fluoro-3-methylphenyl)imidazo[1,2-b]pyridazin-3-yl]pyridin-2-yl}-2-methylbenzamide], with 196 to 197 °C.

The term melting point denotes the temperature of the solid-liquid transition.

For the origin of these results see patent US20080167314A1, “Condensed Imidazole Compound And Use Thereof” (priority 2004, published 2008).
